From patent US9725445B2, “Cycloalkyl nitrile pyrazolo pyridones as Janus kinase inhibitors” (Merck Sharp & Dohme Corp., priority 2013, dated 2017)
Read-outs that look alike come from different tables or passages of the source.

Assays:
[1] = target: JAK1 (Homo sapiens (Human), UniProt P23458); assay: Jak biochemical HTRF assay, JAK1; conditions: recombinant GST-tagged catalytic domain
[2] = target: JAK2 (Homo sapiens (Human), UniProt O60674); assay: Jak biochemical HTRF assay, JAK2; conditions: recombinant GST-tagged catalytic domain
Chain of JAK2 (O60674 849-1124): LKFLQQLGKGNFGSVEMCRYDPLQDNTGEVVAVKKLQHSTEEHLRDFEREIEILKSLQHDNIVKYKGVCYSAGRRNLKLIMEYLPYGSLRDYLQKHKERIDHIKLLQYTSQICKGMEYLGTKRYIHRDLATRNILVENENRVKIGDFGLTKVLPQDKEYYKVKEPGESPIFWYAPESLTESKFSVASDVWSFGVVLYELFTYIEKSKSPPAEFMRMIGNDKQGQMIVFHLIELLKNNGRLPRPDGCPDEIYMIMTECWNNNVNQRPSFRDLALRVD

[3] = HTRF biochemical assay, read-out: JAK1 IC50
[4] = HTRF biochemical assay, read-out: JAK2 IC50

Chain of JAK1 (P23458 875-1153): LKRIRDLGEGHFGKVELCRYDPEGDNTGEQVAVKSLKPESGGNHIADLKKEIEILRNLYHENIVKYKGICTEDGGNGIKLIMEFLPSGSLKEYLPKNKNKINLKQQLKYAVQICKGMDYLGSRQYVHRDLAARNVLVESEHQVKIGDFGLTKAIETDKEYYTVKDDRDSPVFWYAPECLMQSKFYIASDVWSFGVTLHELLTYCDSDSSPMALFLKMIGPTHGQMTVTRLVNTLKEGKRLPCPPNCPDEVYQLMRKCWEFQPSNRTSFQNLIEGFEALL

Structure (SMILES): Cc1cc(Nc2nn([C@H]3CCCC[C@@H]3C#N)c3cc[nH]c(=O)c23)ccc1C(=O)N1CCCC1 [Example 3-27, (1S,2S)-2-(3-{[3-methyl-4-(pyrrolidin-1-ylcarbonyl)phenyl]amino}-4-oxo-4,5-dihydro-1H-pyrazolo[4,3-c]pyridin-1-yl)cyclohexanecarbonitrile]
- IC50 [1, 3]: 0.13 nM
- IC50 [2, 4]: 0.2 nM

Structure (SMILES): N#C[C@H]1CCC[C@@H]1n1nc(Nc2ccc(C(N)C(F)(F)F)cc2)c2c(=O)[nH]ccc21 (single isomer, unassigned) [Example 3-103, (1S,2S)-2-[3-({4-[(1R or 1S)-1-amino-2,2,2-trifluoroethyl]phenyl}amino)-4-oxo-4,5-dihydro-1H-pyrazolo[4,3-c]pyridin-1-yl]cyclopentanecarbonitrile]
- IC50 [1, 3]: 0.28 nM
- IC50 [2, 4]: 0.7 nM

Structure (SMILES): N#C[C@H]1CCCC[C@@H]1n1nc(Nc2ccc(C3(O)COC3)cc2)c2c(=O)[nH]ccc21 [Example 15-9, (1S,2S)-2-(3-{[4-(3-hydroxyoxetan-3-yl)phenyl]amino}-4-oxo-4,5-dihydro-1H-pyrazolo[4,3-c]pyridin-1-yl)cyclohexanecarbonitrile]
- IC50 [1, 3]: 0.32 nM
- IC50 [2, 4]: 1.1 nM

Structure (SMILES): CC1c2cc(Nc3nn([C@H]4CCCC[C@@H]4C#N)c4cc[nH]c(=O)c34)ccc2S(=O)(=O)N1C (single isomer, unassigned) [Example 3-126, (1S,2S)-2-(3-(((R or S)-2,3-dimethyl-1,1-dioxido-2,3-dihydrobenzo[d]isothiazol-5-yl)amino)-4-oxo-4,5-dihydro-1H-pyrazolo[4,3-c]pyridin-1-yl)cyclohexanecarbonitrile]
- IC50 [1, 3]: 0.077 nM
- IC50 [2, 4]: 2.5 nM

Structure (SMILES): CC(C)(C)N1Cc2cc(Nc3nn([C@H]4CCC[C@@H]4C#N)c4cc[nH]c(=O)c34)ccc2S1(=O)=O [Example 3-100, (1S,2S)-2-{3-[(2-tert-butyl-1,1-dioxido-2,3-dihydro-1,2-benzisothiazol-5-yl)amino]-4-oxo-4,5-dihydro-1H-pyrazolo[4,3-c]pyridin-1-yl}cyclopentanecarbonitrile]
- IC50 [1, 3]: 0.043 nM
- IC50 [2, 4]: 0.28 nM

Structure (SMILES): N#C[C@H]1CCCC[C@@H]1n1nc(Nc2ccc(C3(C(F)(F)F)CC3)cc2)c2c(=O)[nH]ccc21 [Example 15-19]
- IC50 [1, 3]: 1 nM
- IC50 [2, 4]: 8.1 nM

Structure (SMILES): CC1(N2Cc3cc(Nc4nn([C@H]5CCCC[C@@H]5C#N)c5cc[nH]c(=O)c45)ccc3S2(=O)=O)CCC(F)(F)CC1 [Example 15-73, (1S,2S)-2-(3-{[2-(4,4-difluoro-1-methylcyclohexyl)-1,1-dioxido-2,3-dihydro-1,2-benzisothiazol-5-yl]amino}-4-oxo-4,5-dihydro-1H-pyrazolo[4,3-c]pyridin-1-yl)cyclohexanecarbonitrile]
- IC50 [1, 3]: 0.28 nM
- IC50 [2, 4]: 0.55 nM

Structure (SMILES): CC(C)(C)OC(=O)NCc1cccc(Nc2nn([C@H]3CCCC[C@@H]3C#N)c3cc[nH]c(=O)c23)c1 [Example 3-16, tert-butyl [3-({1-[(1S,2S)-2-cyanocyclohexyl]-4-oxo-4,5-dihydro-1H-pyrazolo[4,3-c]pyridin-3-yl}amino)benzyl]carbamate]
- IC50 [1, 3]: 1.4 nM
- IC50 [2, 4]: 3.3 nM

Structure (SMILES): N#C[C@H]1CCCC[C@@H]1n1nc(Nc2ccc(CN)cc2)c2c(=O)[nH]ccc21 [Example 6-5, (1S,2S)-2-(3-((4-(aminomethyl)phenyl)amino)-4-oxo-4,5-dihydro-1H-pyrazolo[4,3-c]pyridin-1-yl)cyclohexanecarbonitrile]
- IC50 [1, 3]: 0.46 nM
- IC50 [2, 4]: 0.82 nM

Structure (SMILES): Cn1cc(-c2ccc(Nc3nn([C@H]4CCCC[C@@H]4C#N)c4cc[nH]c(=O)c34)cc2Cl)cn1 [Example 3-146, (1S,2S)-2-(3-{[3-chloro-4-(1-methyl-1H-pyrazol-4-yl)phenyl]amino}-4-oxo-4,5-dihydro-1H-pyrazolo[4,3-c]pyridin-1-yl)cyclohexanecarbonitrile]
- IC50 [1, 3]: 0.29 nM
- IC50 [2, 4]: 6.4 nM

Structure (SMILES): CC(C)(C)OC(=O)N1[C@@H]2CC[C@H]1C[C@@H](c1ccc(Nc3nn([C@H]4CCCC[C@@H]4C#N)c4cc[nH]c(=O)c34)cc1)C2 (single isomer, unassigned) [Example 3-165]
- IC50 ([1]; JAK1 IC50, HTRF biochemical assay): 2.6 nM
- IC50 ([2]; JAK2 IC50, HTRF biochemical assay): 7.9 nM

Structure (SMILES): N#C[C@H]1CCCC[C@@H]1n1nc(Nc2ccc(-c3ccno3)cc2)c2c(=O)[nH]ccc21 [Example 15-5, (1S,2S)-2-{3-[(4-isoxazol-5-ylphenyl)amino]-4-oxo-4,5-dihydro-1H-pyrazolo[4,3-c]pyridin-1-yl}cyclohexanecarbonitrile]
- IC50 [1, 3]: 0.32 nM
- IC50 [2, 4]: 3.2 nM

Structure (SMILES): Cc1cc(Nc2nn([C@H]3CCCC[C@@H]3C#N)c3cc[nH]c(=O)c23)ccc1C(=O)N(C)C [Example 3-67, 4-({1-[(1S,2S)-2-cyanocyclohexyl]-4-oxo-4,5-dihydro-1H-pyrazolo[4,3-c]pyridin-3-yl}amino)-N,N,2-trimethylbenzamide]
- IC50 [1, 3]: 0.34 nM
- IC50 [2, 4]: 0.43 nM

Structure (SMILES): N#C[C@H]1CCCC[C@@H]1n1nc(Nc2ccc3c(c2)CN(CC2CC2)S3(=O)=O)c2c(=O)[nH]ccc21 [Example 3-63, (1S,2S)-2-(3-{[2-(cyclopropylmethyl)-1,1-dioxido-2,3-dihydro-1,2-benzisothiazol-5-yl]amino}-4-oxo-4,5-dihydro-1H-pyrazolo[4,3-c]pyridin-1-yl)cyclohexanecarbonitrile]
- IC50 [1, 3]: 0.066 nM
- IC50 [2, 4]: 0.54 nM

Structure (SMILES): CC(C)[C@@H](C)N1Cc2ccc(Nc3nn([C@H]4CCCC[C@@H]4C#N)c4cc[nH]c(=O)c34)cc2C1 [Example 3-149, (1S,2S)-2-[3-({2-[(1R)-1,2-dimethylpropyl]-2,3-dihydro-1H-isoindol-5-yl}amino)-4-oxo-4,5-dihydro-1H-pyrazolo[4,3-c]pyridin-1-yl]cyclohexanecarbonitrile]
- IC50 [1, 3]: 0.48 nM
- IC50 [2, 4]: 0.61 nM

Structure (SMILES): Cn1ccc(NC(=O)Cc2cccc(Nc3nn([C@H]4CCCC[C@@H]4C#N)c4cc[nH]c(=O)c34)c2)n1 [Example 3-11, 2-[3-({1-[(1S,2S)-2-cyanocyclohexyl]-4-oxo-4,5-dihydro-1H-pyrazolo[4,3-c]pyridin-3-yl}amino)phenyl]-N-(1-methyl-1H-pyrazol-3-yl)acetamide]
- IC50 [1, 3]: 0.41 nM
- IC50 [2, 4]: 3.3 nM

Structure (SMILES): C[C@H](NC1CCC(n2nc(Nc3ccc(Cl)cc3)c3c(=O)[nH]ccc32)C(C#N)C1)C1CC1 (stereo in doubt) [Example 4-3, (1R,2R,5R)-2-(3-((4-Chlorophenyl)amino)-4-oxo-4,5-dihydro-1H-pyrazolo[4,3-c]pyridin-1-yl)-5-(((S)-1-cyclopropylethyl)amino)cyclohexanecarbonitrile]
- IC50 [1, 3]: 0.3 nM
- IC50 [2, 4]: 13 nM

Structure (SMILES): COCC(C)(C)CN1Cc2cc(Nc3nn([C@H]4CCCC[C@@H]4C#N)c4cc[nH]c(=O)c34)ccc2S1(=O)=O [Example 3-159, (1S,2S)-2-(3-((2-(3-methoxy-2,2-dimethylpropyl)-1,1-dioxido-2,3-dihydrobenzo[d]isothiazol-5-yl)amino)-4-oxo-4,5-dihydro-1H-pyrazolo[4,3-c]pyridin-1-yl)cyclohexanecarbonitrile]
- IC50 [1, 3]: 0.059 nM
- IC50 [2, 4]: 0.44 nM

Structure (SMILES): COC(C)(c1ccc(Nc2nn([C@H]3CCCC[C@@H]3C#N)c3cc[nH]c(=O)c23)cc1)C(F)(F)F (single isomer, unassigned) [Example 3-125, (1S,2S)-2-(4-oxo-3-((4-((R or S)-1,1,1-trifluoro-2-methoxypropan-2-yl)phenyl)amino)-4,5-dihydro-1H-pyrazolo[4,3-c]pyridin-1-yl)cyclohexanecarbonitrile]
- IC50 [1, 3]: 0.32 nM
- IC50 [2, 4]: 0.86 nM

Structure (SMILES): CN(C)[C@@H]1CC[C@H](n2nc(Nc3ccc(Cl)cc3)c3c(=O)[nH]ccc32)[C@@H](C#N)C1 [Example 5-15, (1S,2S,5R)-2-(3-((4-chlorophenyl)amino)-4-oxo-4,5-dihydro-1H-pyrazolo[4,3-c]pyridin-1-yl)-5-(dimethylamino)cyclohexanecarbonitrile]
- IC50 [1, 3]: 0.28 nM
- IC50 [2, 4]: 11 nM

Structure (SMILES): CC(C)(c1ccc(Nc2nn([C@H]3CCCC[C@@H]3C#N)c3cc[nH]c(=O)c23)cc1)n1nccn1 [Example 15-29, (1S,2S)-2-[3-({4-[1-methyl-1-(2H-1,2,3-triazol-2-yl)ethyl]phenyl}amino)-4-oxo-4,5-dihydro-1H-pyrazolo[4,3-c]pyridin-1-yl]cyclohexanecarbonitrile]
- IC50 [1, 3]: 0.14 nM
- IC50 [2, 4]: 0.24 nM

Structure (SMILES): N#C[C@H]1CCCC[C@@H]1n1nc(Nc2ccc([C@@H](N)C(F)(F)F)cc2)c2c(=O)[nH]ccc21 [Example 7-3, (1S,2S)-2-[3-({4-[(1R)-1-amino-2,2,2-trifluoroethyl]phenyl}amino)-4-oxo-4,5-dihydro-1H-pyrazolo[4,3-c]pyridin-1-yl]cyclohexanecarbonitrile]
- IC50 [1, 3]: 0.12 nM
- IC50 [2, 4]: 0.37 nM

Structure (SMILES): CC(C)(C)[S@@+]([O-])N[C@@H](c1cccc(Nc2nn([C@H]3CCCC[C@@H]3C#N)c3cc[nH]c(=O)c23)c1)C(F)(F)F [Example 3-41, N-{(1S)-1-[3-({1-[(1S,2S)-2-cyanocyclohexyl]-4-oxo-4,5-dihydro-1H-pyrazolo[4,3-c]pyridin-3-yl}amino)phenyl]-2,2,2-trifluoroethyl}-2-methylpropane-2-sulfinamide]
- IC50 [1, 3]: 1.6 nM
- IC50 [2, 4]: 29 nM

Structure (SMILES): C[C@@H](NCC(F)(F)F)c1ccc(Nc2nn([C@H]3CCCC[C@@H]3C#N)c3cc[nH]c(=O)c23)cc1 [Example 3-66, (1S,2S)-2-{4-oxo-3-[(4-{(1R)-1-[(2,2,2-trifluoroethyl)amino]ethyl}phenyl)amino]-4,5-dihydro-1H-pyrazolo[4,3-c]pyridin-1-yl}cyclohexanecarbonitrile]
- IC50 [1, 3]: 0.2 nM
- IC50 [2, 4]: 0.32 nM

Structure (SMILES): N#C[C@H]1CCCC[C@@H]1n1nc(Nc2ccc(C3CCCN3)cc2)c2c(=O)[nH]ccc21 (single isomer, unassigned) [Example 3-71, (1S,2S)-2-[4-oxo-3-({4-[(2S or 2R)-pyrrolidin-2-yl]phenyl}amino)-4,5-dihydro-1H-pyrazolo[4,3-c]pyridin-1-yl]cyclohexanecarbonitrile]
- IC50 [1, 3]: 0.27 nM
- IC50 [2, 4]: 0.54 nM
